Values of other authors as cited in patent US11083779B2, “Method for treatment of encephalopathy” (priority 2018, dated 2021).

Test system: toxic encephalopathy
Conditions: PIRACETAM i.v. 10-15 minutes before transcranial electrical stimulation, two steps (77 Hz, 10 Hz)

NC(=O)CN1CCCC1=O [PIRACETAM®, PIRACETAM]
patient symptoms after treatment: decrease of headaches, giddiness and the improvement of sleep
